In US11872196B2, “Use of cannabidiol in treatment of pulmonary hypertension” (DEYI PHARMARMACEUTICAL LTD., priority 2017, dated 2024):

Key:
[1] = system: C57BL/6 mice with pulmonary arterial hypertension caused by hypoxia; assay: Pathological changes of pulmonary arterioles (HE and elastic fiber staining, vascular remodeling rate) in hypoxia PAH mice; assay type: in vivo, mouse
Experimental: (§1) Healthy and lively C57BL/6 mice at the age of 4-6 weeks, with glossy hair colors, and body weights of (25.15±2.15) g (Laboratory Animal Center of Academy of Military Medical Sciences, SPF grade). The mice were divided into four groups: • Group 1 (wild-type normoxia, used as a control group): 10 female mice and 10 male mice under normoxia conditions; • Group 2 (wild-type hypoxia, used as a control group): 10 female mice and 10 male mice under hypoxia conditions; • Group 3 (10 mg/kg, used as an experimental group): 10 female mice and 10 male mice were treated with 10 mg/kg by gavage under hypoxia conditions; • Group 4 (50 mg/kg, used as an experimental group): 10 female mice and 10 male mice were treated with 50 mg/kg by gavage under hypoxia conditions.
(§2) The mice of groups 2-4 were placed in an animal feeding chamber under normal pressure and hypoxia, the oxygen concentration in the chamber was maintained at 9%-11%, and the temperature in the chamber was maintained at 22-26° C. The mice of group 1 inhaled normal atmosphere air, and the other conditions were the same as those for mice of groups 2-4.
In order to explore whether CBD has a therapeutic effect on pulmonary arterial hypertension or not, the inventor first treated mice for 14 days in a continuous hypoxia environment to establish a model of pulmonary arterial hypertension (the groups 2-4), and then administration was started from day 15 to day 21 through gavage once a day, the mice were treated every day for 7 days (the group 3-4), and detection was performed on day 21.
Sample: paraffin sections of mouse lung tissue.
Objective: observing the pathology of lung tissues to detect whether there is a vascular wall thickening phenomenon or not.

IL-6 = assay: LPS-induced primary alveolar macrophages, IL-6 expression by fluorescence quantitative PCR; assay type: cell-based, mouse; conditions: 0.5, 1, 5 μM CBD pre-treatment 0.5 h, then 100 ng/mL LPS, 5 h; dose-dependent
Excerpt: (§3) Primary alveolar macrophages were isolated according to the method by Yang et al. (Yang, H. M., Ma, J. Y., Castranova, V., and Ma, J. K. (1997). Effects of diesel exhaust particles on the release of interleukin-1 and tumor necrosis factor-alpha from rat alveolar macrophages. Experimental lung research 23, 269-284): two-month-old mice were taken and injected intraperitoneally with pentobarbital to be anesthetized. The mice were fixed at a supine position, and disinfected at the neck, and the neck skin was cut open to strip gland muscles and expose the trachea. A small opening was cut in an upper part of the trachea without cutting off. A small white pipette tip was inserted onto a 1 ml pipette to pipette 1 ml PBS at 4° C. (free of Ca^2+, free of Mg^2+, […]) [50 ml PBS+0.00876 g EDTA] into the lung from the opening, and then pipetted out from the opening after blowing in. Then fresh PBS was taken and pipetted into and out from the opening repeatedly for 3-4 times. The collected alveolar irrigation solution was centrifuged at 200×g for 5 minutes, and the supernatant was discarded. The cells were washed once with a serum-free RPMI-1640 culture medium and centrifuged at 200×g for 5 minutes. The cells were resuspended by adding a serum-containing RPMI-1640 and then inoculated. The cells were subjected to adherence for 2 h, and then washed for three times with PBS. […]

MgI2 = assay: LPS-induced primary alveolar macrophages, MgI2 expression by fluorescence quantitative PCR; assay type: cell-based, mouse; conditions: 0.5, 1, 5 μM CBD pre-treatment 0.5 h, then 100 ng/mL LPS, 5 h
Excerpt: as §3

[2] = system: C57BL/6 mice with pulmonary arterial hypertension caused by hypoxia; assay: Right ventricular hypertrophy (RVH) index RV/(LV+S) in hypoxia PAH mice; assay type: in vivo, mouse; conditions: 7 days, model group 32.62±1.41, normoxia 25.99±1.17, mean±standard error
Experimental: as §1
as §2, with “2-4. […]” for “2-4.”

[3] = system: C57BL/6 mice with pulmonary arterial hypertension caused by hypoxia; assay: Right ventricular systolic pressure (RVSP) in mice with pulmonary arterial hypertension caused by hypoxia; assay type: in vivo, mouse; conditions: day 15 to 21 of continuous hypoxia, detection on day 21, hypoxia model control 25.55±2.29, normoxia 17.54±1.48, mean±standard error
Experimental: as §1, with “conditions. […]” for “conditions.”
On day 21, the mice were anesthetized by intraperitoneal injection of sodium pentobarbital (35 mg/kg), and the right ventricular systolic pressure was measured by using a catheter matched with a physiological instrument with reference to the right-heart catheterization reported by Song et al. (Song, Y., Jones, J. E., Beppu, H., Keaney, J. F., Jr., Loscalzo, J., and Zhang, Y. Y. (2005). Increased susceptibility to pulmonary hypertension in heterozygous BMPR2-mutant mice. Circulation 112, 553-562). […] After the catheter entered the right ventricle, RVSP was determined and recorded.

TNF-α = assay: LPS-induced primary alveolar macrophages, TNF-α expression by fluorescence quantitative PCR; assay type: cell-based, mouse; conditions: 0.5, 1, 5 μM CBD pre-treatment 0.5 h, then 100 ng/mL LPS, 5 h; dose-dependent
Excerpt: as §3

[4] = after CBD treatment (10 and 50 mg/kg by gavage) versus hypoxia model group
[5] = both dose groups (10 and 50 mg/kg)

## C=C(C)[C@@H]1CCC(C)=C[C@H]1c1c(O)cc(CCCCC)cc1O [CBD, Cannabidiol]
[1]; [4]
  pulmonary arteriole remodeling: significantly reduced
  vascular remodeling rate: significantly reduced
[1]; [5]
  arterial medial wall thickness ratio: reduction
  vascular wall medial cross-sectional area ratio: reduction
IL-6
  expression of LPS-induced IL-6: significantly inhibit
MgI2
  expression of MgI2, a gene that inhibited inflammation: promote
[2]; 10 mg/kg by gavage
  right ventricular hypertrophy index (right heart index): 30.18±1.01%
[2]; 50 mg/kg by gavage
  right ventricular hypertrophy index (right heart index): 29.90±1.19%
[3]; 10 mg/kg by gavage once a day
  mean right ventricular systolic pressure: 16.90±2.31 mmHg
[3]; 50 mg/kg by gavage once a day
  mean right ventricular systolic pressure: 17.92±2.37 mmHg
TNF-α
  expression of LPS-induced TNF-α: significantly inhibit
